According to patent US8618074B2, “GPCR enhanced neuroprotection to treat brain injury” (Board of Regents of the University of Texas System, priority 2007, dated 2013):

Columns and labels:
astrocytes [1] = assay: Fura-2 two-photon imaging of intracellular Ca2+ response; assay type: cell-based, mouse
Description: Ca^2+ activity was imaged as previously described (Camacho and Lechleiter, 1995). In brief, cultured astrocytes were incubated with the fura-2 am (Molecular Probes, #F-1221) 30 min prior to the experiment. Images were acquired with two-photon excitation (800 nm) at the rate of 1.5 images/ sec. […] Images were analyzed with Image J and ANALYZE® software (the Mayo Foundation, Rochester, MN). The D-enantiomer of the 1P3-BM ester was synthesized by Stuart Conway in the Cambridge University Chemical Laboratory by using a modification of the protocol of Tsien and co-workers (Li et al., 1997).
The primary response of glial cells to extracellular ATP is an increase in intracellular Ca^2+. To investigate whether the protective effect of ATP could be initiated by a Ca^2+ response, we loaded cultures of astrocytes with the Ca^2+ indicator dye Fura-2 AM (10 μM for 30 minutes). Fura-2 fluorescence was imaged with 2-photon microscopy using 800 nm excitation. At this wavelength, fluorescence is primarily due to the Ca^2+ free form of fura-2. […] When young astrocyte cultures were exposed to extracellular ATP (10 μM for 10 minutes), the peak intracellular Ca^2+ (−ΔF/F) was increased to 0.46±0.02 (n=25, pooled from 2 experiments). […] We tested whether the ATP-induced Ca^2+ response could be attributed to the metabotropic pathway, since IP3 mediated Ca^2+ release can stimulate mitochondrial energy production as well as sensitize mitochondria to apoptotic stimuli. Astrocytes cultured from old mice were pretreated with Xestospongin C (XeC, 25 μM for 30 minutes), which is a competitive inhibitor of IP3 binding to the IP3R. […] This is consistent with other reports showing that activation of the ionotropic P2X receptor activation also increases Ca^2+ in cultured astrocytes. To determine whether the metabotropic pathway was involved with the protective effect of extracellular ATP, we subsequently exposed the XeC/ATP treated astrocytes to oxidative stress. As described above, the perfusate contained t-BuOOH (100 μM) and TMRE (200 nM) to monitor ΔΨ. Under these experimental conditions, the average time until ΔΨ collapse was reduced to 5.48±0.22 (n=23, pooled from 2 experiments) in young astrocytes (FIG. 1C) and to 4.02±0.18 h (n=19, pooled from 2 experiments) in old astrocytes (FIG. 2C). […] We concluded that the protective effect of ATP on astrocytes was mediated by P2Y-receptors (P2Y-Rs).

astrocytes [2] = assay: Mitochondrial membrane potential ΔΨ estimated as log(Fmito/Fcyto) with TMRE; assay type: cell-based, mouse; conditions: treating astrocytes for 10 minutes
Description: Mitochondrial membrane potentials (ΔΨs) was measured as previously described using the potential sensitive dye tetra-methyl rhodamine ethyl ester (TMRE, Molecular Probes, #T-669) (Lin and Lechleiter, 2002). Images were acquired with a 60× oil 1.4 NA objective on a Nikon PCM2000 confocal microscope custom adapted for two-photon imaging. A Ti-sapphire Coherent Mira 900 Laser pumped with a 5W Verdi laser (Coherent Inc., Santa Clara, Calif.) was used to excite TMRE at 800 nm A neutral-density filter wheel was used to attenuate the laser intensity so that no detectable photobleaching of TMRE was observed.
We confirmed this by directly measuring the effect of ATP, ATP plus XeC and IP3-BM treatments on ΔΨ. Cultured cells were labeled with TMRE (200 nM) and imaged with a two-photon microscope as described above. ΔΨ was estimated as the log (Fmito/Fcyto) where Fmito is the peak fluorescent intensity observed in single mitochondria (Farkas et al., 1989; Lin et al., 2005). The mean values of individual mitochondria from a single cell were used for the mitochondrial potential estimate. Fcyto represents the lowest value of TMRE fluorescence observed within the boundaries of the same cell. […] FIG. 5E depicts a histogram plot showing average mitochondrial membrane potentials before and after treatment. The mean resting ΔΨs for untreated (Buffer), ATP-treated, ATP plus XeC-treated and IP3-BM-treated were 1.84+0.01 (n=78 mitochondria, pooled from 2 experiments), 1.84+0.01 (n=85 mitochondria), 1.85+0.01 (n=80 mitochondria) and 1.86+0.01 (n=48 mitochondria), respectively. Astrocyte cultures were then exposed to their respective treatments and the same fields of mitochondria were imaged 10 minutes later.

astrocytes [3] = assay: Confocal Ca2+ imaging of astrocytes on bath application of ATP; assay type: cell-based, mouse; conditions: bath application of ATP 1 μM; cultured young and old astrocytes
Source text: The next physiological response that we investigated during aging was intracellular Ca^2+ signaling. Metabotropic purinergic receptors (P2Y-Rs) are well known to generate robust Ca^2+ signals in astrocytes. Our initial bias was that we would observe reduced Ca^2+ responses in astrocytes cultured from old mice. […] Ca^2+ measurements were made using standard confocal imaging of Ca^2+ sensitive fluorescent dyes, which loaded equally well for both young and old astrocytes. […] The first surprise finding was that a higher percentage of old astrocytes (more than half) responded to exogenously applied ATP. […] However, we can account for these observed enhancements to cytosolic Ca^2+ signaling in old astrocytes by a reduced ability of mitochondria to sequester Ca^2+ during aging. […] The ability of mitochondria to sequester Ca^2+, and thereby modulate IP3-induced Ca^2+ release, is critically dependent on the mitochondrial membrane potential (ΔΨ) and close proximity of mitochondria to the Ca^2+ release site. This proximity allows mitochondria to sense greater Ca^2+ concentrations than those present in the bulk cytosolic compartment. Consequently, a reduction in ΔΨ with age will reduce mitochondrial Ca^2+ buffering, thereby leading to increased cytosolic Ca^2+ release and faster Ca^2+ dynamics.

astrocytes [4] = assay: MCB (reduced GSH) fluorescence of cortical astrocytes after RB-induced clot/ischemia; assay type: in vivo, mouse; conditions: 340 minutes after the initial clot; tail vein injection with RB
Description: In another series of experiments, a transgenic mouse expressing green fluorescent protein (GFP) in astrocytes was prepared for imaging. In this mouse, the cortical cells were labeled with monochlorobimane (MCB), a fluorescent indicator of reduced GSH. After obtaining an image of astrocytes (GFP) and MCB fluorescence, the mouse was tail vein injected with Rose Bengal (RB), FITC-dextran and the P2Y-R agonist 2-MeSADP. A clot was induced with 543 nm irradiation in a region of the brain. Breakdown of the blood brain barrier in the region near this clot permitted secretion of 2-MeSADP in the nearby astrocytes. MCB fluorescence was maintained for over an hour in all of the cells in the field of view. […] The persistence of GSH in this area indicates an enhanced region of protection against oxidative stress caused by ischemia. Lineplots of MCB fluorescence of the astrocytes is depicted in FIG. 7. Cells a1-a3 are within the protected zone and cells a4-a6 are outside this area.

astrocytes [5] = assay: Single cell astrocyte edema (swelling) after RB-induced photothrombotic event; assay type: in vivo, mouse; conditions: tail-vein injection
Source text: A critical role for mitochondrial metabolism is also supported by new data obtained from a transgenic mouse model expressing a mitochondrial targeted DNA restriction enzyme, EcoR1, under the control of doxycycline (tTA/mtEcoR1, courtesy of Dr. Chris Walters, UTHSCSA). […] In addition to optically imaging multiple physiological parameters in single cells (e.g. mitochondrial membrane potentials and Ca2+ levels in real time), we have successfully imaged single cells edema formation in response to a Rose Bengal (RB)-induced photothrombotic event in a single blood vessel. Our preliminary measurements indicate that astrocyte volume increases over 6-fold during edema formation.

Structure (SMILES) | peak Ca2+ amplitude (−ΔF/F) (astrocytes [1]; old astrocytes, ATP 10 μM) | peak intracellular Ca2+ (−ΔF/F) (astrocytes [1]; young astrocytes, ATP 10 μM for 10 minutes) | ΔΨ (log Fmito/Fcyto) after treatment (astrocytes [2]) | Ca2+ oscillations (astrocytes [3]) | MCB fluorescence (GSH) of astrocytes near the initial clot zone (astrocytes [4]) | astrocyte swelling (edema) (astrocytes [5]) | time to apparently complete reversal of astrocyte swelling after the initial clot (astrocytes [5])
Nc1ncnc2c1ncn2[C@@H]1O[C@H](COP(=O)(O)OP(=O)(O)OP(=O)(O)O)[C@@H](O)[C@H]1O [ATP] | 0.46±0.04 | 0.46±0.02 | 1.98±0.01 | stimulated Ca^2+ oscillations |  |  | 
CSc1nc(N)c2ncn([C@@H]3O[C@H](COP(=O)(O)OP(=O)(O)O)[C@@H](O)[C@H]3O)c2n1 [2-MeSADP] |  |  |  |  | essentially maintained | significantly reduced swelling | ≤ 8 h
